Assays:
human G-CSF promoter = format: cell-based; conditions: Table 2 A) transcriptional activators; G21 cells, 6 hours, high-throughput screen
From the text: A human bladder carcinoma cell line (U5637, ATCC number HTB 9) was used for transfection of plasmids containing the human Granulocyte-Colony Stimulating Factor (G-CSF) promoter (see below) and was maintained in RPMI medium supplemented with 10% FCS. For HTP screening, transfected 5637 clones were transferred to a serum free defined medium identical to that used for the NIH/3T3 clones.
The sequences of OL-1, OL-2 and OL-5 recognize the G-CSF promoter region, OL-4 recognizes the first intron/exon junction and OL-3 recognizes sequences within the second exon (32). One of the clones isolated from the leukocyte library using these oligonucleotide probes contains a 3.5 kb SalI-BamHI fragment of G-CSF genomic sequence consisting of 3.3 kb of promoter sequence and two hundred base pairs of the coding region. This fragment was inserted into the vector pGEM-7-Zf (Promega, Madison, Wis.) which had previously been digested with SalI/BamHI, resulting in the vector pJM710 (FIG. 7). pJM710 was then digested with PstI, and the resulting 1.6 kb fragment containing G-CSF upstream sequences and the first 15 bases of the G-CSF leader sequence was inserted into the PstI site of pGEM5-Luci (FIG. 8) to generate pG-Lucl (FIG. 9). This construct was then used for transfection of 5637 human bladder carcinoma cells as described below in section E3. pGEM5-Luci (FIG. 8) had previously been constructed by inserting the […]/SalI fragment from pSVLuci (FIG. 2) containing the luciferase coding sequence and the SV40 late polyadenylation signal into pGEM 5-Zf (Promega, Madison Wis.) digested with XhoI/SalI.
pG-LUC1 (FIG. 9) and pRSVNeo were co-transfected into 5637 human bladder carcinoma cells as described above. Selection of G418 resistant clones was as described above except for using a concentration of 0.1 mg/ml G418. Analysis of cell clones was performed as above except that a known inducer of G-CSF expression (1-5 µg/ml lipopolysaccharide (LPS), E. coli serotype 055:b5, Difco, Detroit, Mich. or Sigma, St. Louis, Mo.) was used in place of dexamethasone.
(§1) Cell plating: Dynatech Microlite 96 well plates were custom pretreated for cell attachment by Dynatech Laboratories, Inc. (Chantilly, Va.). Alternatively, the 96 well plates were treated with 50 µl per well of human fibronectin (hFN, 15 µg/ml in PBS, Collaborative Research, Bedford, Mass.) overnight at 37 C. hFN-treated plates were washed with PBS using an Ultrawash 2 Microplate Washer (Dynatech Labs), to remove excess hFN prior to cell plating. M10, 532, and G21 cells maintained in their respective serum media (with 0.2 mg/ml G418) were washed with PBS, harvested by trypsinization, and counted using a hemocytometer and the Trypan Blue exclusion method according to protocols provided by Sigma, St. Louis, Mo. Chemical Company. Cells were then diluted into serum free defined media (with 0.2 mg/ml G418), and 0.2 ml of cell suspension per well was plated onto Dynatech treated plates (532 and G21) or hFN-treated plates (M10) using a Cetus Pro/Pette (Cetus, Emeryville Calif.). Plates were incubated overnight at 37 C in a humidified 5% CO2 atmosphere.
(§2) Addition of Chemicals to Cells: Chemicals from the Oncogene Science file were dissolved in DMSO at concentrations of 3-30 mg/ml. A liquid handling laboratory work station (RSP 5052, Tecan U.S. Chapel Hill, N.C.) was used to dilute the chemicals (three dilutions; 5 fold, 110 fold, and 726 fold). 10 11 of each dilution were added to each of quadruplicate samples of cells contained in the wells of 96-well Dyantech Microlite Plates. […]

[1] = system: human growth hormone promoter; format: cell-based; conditions: Table 2 A) transcriptional activators; 532 cells, 6 hours, high-throughput screen
From the text: A rat pituitary cell line, designated GC, (4, 25) was used for transfection of plasmids containing the human growth hormone promoter (see below) and was maintained in DMEM and Ham's F12 medium (1:1), supplemented with 12.5% FCS. For HTP screening, transfected GC clones were transferred to serum free defined medium consisting of DMEM and Ham's F12 medium (1:1) supplemented with growth factors, hormones and nutrients as described previously (17, 5).
The SalI-XhoI fragment of pSVLuci (FIG. 2) containing the luciferase coding sequences and the SV40 late polyadenylation site was inserted into pUC 8 (Biorad, Richmond, Calif.), which has been linearized by a SmaI/HinCII digestion and ligated to XhoI linkers (New England Biolabs, Beverly, Mass.). The new plasmid thus generated (pUXLuci; FIG. 4) was linearized by XhoI digestion followed by incubation with the Klenow fragment of E. coli DNA polymerase and the four deoxyribonucleotides to fill in the single-stranded ends of the vector. This linear (5.1 KB) form of pUXLuci was then ligated to the filled-in 550 bP HindIII-XbaI fragment of the plasmid phGH:CAT (FIG. 5) (25). Human growth hormone promoter sequences located on the HindIII-XbaI fragment were thus fused to the luciferase coding sequences located on pUXLuci generating the plasmid phGH-Luci (FIG. 6), which was used in transfections of GC cells as described below (Section E2).
phGH-LUCI (FIG. 6) and pRSVNeo, an antibiotic resistance plasmid (14), were co-transfected into GC rat pituitary cells as described above. Selection of G418-resistant cell clones was described above except for using a concentration of 0.2 mg/ml G418. Analysis of the cell clones was performed as above, except that known inducers of hGH expression (10-100 nM rat growth hormone releasing factor (rGRF, Bachem, Torrance, Calif.) and 10 μm forskolin (Sigma, St. Louis, Mo.) were used in place of dexamethasone. One clone, 532, was selected for further use in the high throughput screen.
as §1
Addition of Chemicals to Cells: Chemicals from the Oncogene Science file were dissolved in DMSO at concentrations of 3-30 mg/ml. A liquid handling laboratory work station (RSP 5052, Tecan U.S. Chapel Hill, N.C.) was used to dilute the chemicals (three dilutions; 5 fold, 110 fold, and 726 fold). 10 11 of each dilution were added to each of quadruplicate samples of cells contained in the wells of 96-well Dyantech Microlite Plates. Cell plates were then shaken on a microplate shaker (Dyantech, medium setting, 30 sec.) and incubated for 6 hours at 37 C, 5% CO2.
Bioluminescence Assay: After incubation with OSI-file chemicals, cell plates were washed 3 times with PBS using an Ultrawash 2 Microplate Washer (Dyantech Labs) and 75 µl of Lysis Buffer 2 were added to each well (Lysis Buffer 2 is the same as Lysis buffer 1 exept that the ATP and DTT concentrations were changed to 2.67 mM and 133 mM, respectively). […]

[2] = system: mouse mammary tumor virus (MMTV) promoter; format: cell-based; conditions: Table 2 A) transcriptional activators; M10 cells, 6 hours, high-throughput screen
From the text: NIH/3T3 fibroblast cells (ATCC number CRL 1658) were used for transfection of plasmids containing the mouse mammary tumor virus (MMTV) promoter linked to firefly luciferase coding sequences (see below). Cells were propagated in Dulbecco's modified Eagle's medium (DMEM) obtained from Gibco, Grand Island, N.Y. and supplemented with 10% FCS. For high-throughput (HTP) screening, transfected NIH/3T3 clones were transferred to serum free defined medium consisting of Iscove's modified Eagle's medium (IMEM) and Ham's F12 medium (1:1) supplemented with growth factors, hormones and nutrients as described previously (43).
The firefly luciferase gene was removed from the plant expression plasmid pDO432 (33) (FIG. 1) as a 1.9 kb BamHI fragment and cloned into the BamHI site of pSVL (Pharmacia, Piscataway, N.J.), a mammalian expression vector containing the SV40 promoter. The resulting plasmid (pSVLuci; FIG. 2) was digested with XhoI and SalI to produce a 2.4 kb fragment containing the luciferase coding sequences and the SV40 late polyadenylation site. This fragment was inserted into the XhoI site of pMSG (Pharmacia, Piscataway, N.J.), a eukaryotic expression vector containing the MMTV promoter. The resulting MMTV promoter-luciferase fusion plasmid (pMLuci; FIG. 3) was used to transfect NIH/3T3 cells as described below (section E1). Similar constructs can be made using luciferase vectors from Clontech (Palo Alto, Calif.).
pMluci (FIG. 3) and pSV2Neo, an antibiotic resistance plasmid (34), were co-transfected into NIH/3T3 mouse fibroblast cells using the calcium phosphate precipitation method (15) with a commercially available kit (Pharmacia, Piscataway N.J.). Two days later, cells were transferred to media containing 0.4 mg/ml G418 and were grown for an additional 10-14 days. G418-resistant clones were isolated by standard methods. Once sufficient cell numbers were obtained, clones were analyzed based on several criteria: constitutive luciferase production, induction of luciferase expression by dexamethasone (1 μm, Sigma, St. Louis, Mo.), satisfactory attachment to microtiter plates used in the high-throughput screen (see Section G) and acceptable standard deviation in multiple luciferase expression assays (see below for assay protocol). This analysis was carried out using the luciferase assay conditions described in sections F and G. Of the clones which satisfied the above criteria for the high throuphput screen, one clone, M10, was selected for use.
as §1, §2

G-CSF promoter = experiment: G-CSF promoter-luciferase induction by known inducers, clone G 1002 (5637 cells); format: cell-based, human; conditions: 10.5 hours, serum-containing media; 8.3 ng/ml TNF-alpha, 20 ng/ml PMA, 0.5 ng/ml Interleukin-1 beta, or mixtures as labelled
From the text: Cloning of G-CSF sequences is described in Experimental Details, section B-3. In order to correctly fuse the G-CSF upstream sequences to the luciferase start codon, oligonucleotides were synthesized which contain the G-CSF leader sequence from +15 to the ATG (32), and were cloned into pUC19 to create pGUC84 (FIG. 29). […] The G-CSF-oligonucleotide-containing NcoI/ScaI fragment from pGUC84 was then isolated and ligated to the luciferase-containing NcoI/ScaI fragment from pUV100 to create pGUV100 (FIG. 30). Following this, the PstI fragment of the G-CSF promoter was isolated form pJM710 (FIG. 7) and inserted into the PstI site in pGUV100 generating pGUV1(FIG. 31). The rest of the G-CSF promoter clone was added by ligating the G-CSF-luciferase containing SfiI/ScaI fragment from pGUV1 to the appropriate SfiI/ScaI fragment from pJM710, creating the plasmid pGUV2 (FIG. 32). The XbaI fragment from pGUV2 containing the G-CSF-luciferase fusion was then cloned into pUV103 previously digested with XbaI/SpeI, generating pGUV140 (FIG. 33). Finally, a TK-Neo cassette (Section C) was included by ligating the ScaI/XbaI fragment from pGUV140 which contains the G-CSF-luciferase fusion into pTKNEO103 previously digested with ScaI/XbaI, yielding the final vector pGUV150 (FIG. 34).
All the following constructs were transfected into 5637 bladder carcinoma cells either by electroporation using a BRL (Gaithersburg, Md.) Cellporator electroporation device or by lipofection using BRL lipofectin and following the manufacturer's protocol. For electroporation, cells were trypsinized, treated with Soybean trypsin inhibitor (1 mg/ml), washed three times in Dulbecco's modified Eagle's medium (DMEM) without pH indicator, and 1 ml of cell suspension in DMEM was electroporated at room temperature and at a cell density of 5 million cells per ml at a voltage of 250 V and a capacitance of 1180 microFarad with the electroporation device set at low resistance. In previous experiments these parameters had been determined to result in optimal electroporation efficiency. About 15 min after electroporation cells were recovered from the disposable electroporation containers (BRL, Gaithersburg, Md.) and plated in RPMI containing 10% fetal calf serum. 2 days after electroporation 0.4 mg/ml G 418 were added and clonal cell colonies were picked 14-20 days after transfection. Clones were first analysed for luciferase expression using Lysis Buffer 1 without bovine serum albumin (see Section F) and those testing positive expanded further and frozen in liquid nitrogen. Further analysis of 6 clones (G 1002, G 2005, G 2071, G 2085, G 3014, G3031) included Southern blotting, reaction to known inducers, satisfactory attachment to microtiter plates and acceptable standard deviation in multiple luciferase expression assays. Clones G 2005 and G 2085 were derived from 5637 cells lipofected with 100 ug/ml of linearized pGVU150 (FIG. 34), G 3031 descends from cells electroporated with 100 ug/ml of linearized pGVU150, whereas 200 ug/ml of the same plasmid were used to generate G 3014. Cotransfection of circular pGVU140 (FIG. 33) with circular pTKNeo3 (FIG. 19) was used to generate clones G 1002 and G 2071. While G 1002 resulted from co-electroporation of 50 and 5 ug/ml of the two plasmids, G 2071 descends from cells lipofected with 100 and 10 ug.
Cell clones with correctly integrated promoter/reporter constructs were analysed for correct reaction to known transcriptional inducers. […] Both TNF-alpha- and PMA-induction levels of clone G 1002 were influenced by the presence or absence of epidermal growth factor (EGF). […] The 9.3fold induction by PMA in the absence of EGF was reduced to 5.6fold by including EGF in the serum-free incubation mixture. Similar differences were observed, when EGF was substituted by 10% fetal calf serum.

Molecule | GCSF fold induction relative to solvent control (human G-CSF promoter) | hGH fold induction relative to solvent control [1] | MMTV fold induction relative to solvent control [2] | G-CSF promoter induction, clone G 1002 (G-CSF promoter)
CC(=O)[O-].Nc1ccc2nc3c(cc(N)c4ccccc43)[o+]c2c1 [Chemical 1776] | 3.50 fold | 0.15 fold | 1.36 fold | 
Interleukin-1 beta: Interleukin-1 beta, known transcriptional inducer |  |  |  | 2.6 fold

From patent US6376175B1, “Methods of discovering chemicals capable of functioning as gene expression modulators” (OSI Pharmaceuticals, Inc., priority 1989, dated 2002)
